Drawing on patent publication US20260200928A1, “THERAPEUTIC COMPOUNDS” (Sanofi, priority 2022, published 2026), this text covers IC50 for 11 compounds.

The assay concerns the target T1, human IL-17A (Homo sapiens, UniProt Q16552).
T1 construct: purchased R&D Systems 7955-IL/CF
T1 sequence (Q16552 24-155): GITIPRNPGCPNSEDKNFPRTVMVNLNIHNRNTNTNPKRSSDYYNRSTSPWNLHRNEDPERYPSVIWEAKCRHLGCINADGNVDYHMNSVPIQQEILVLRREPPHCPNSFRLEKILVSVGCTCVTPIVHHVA
Nature of the assay: IL-17A AlphaLISA competition assay (block of IL-17A binding to its receptor IL-17RA). The conditions noted are these: mean IC50 (n≥2), block of IL-17A binding to IL-17RA. Put shortly: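 Human recombinant IL-17A (7.5 nM stock) pre-incubated 30 min at RT with compound, then IL-17RA/Fc (5 nM stock) added for 90 min; AlphaLISA read with anti-Fc acceptor beads, biotinylated anti-IL-17A antibody (5 nM) and streptavidin donor beads (3 h, dark). IC50 from 4-parameter logistic fit, normalised to DMSO and 4 μM reference inhibitor; n≥2.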
Consider `CCn1nccc1C(=O)NC(C(=O)Nc1cc(Cc2cccc(=O)n2C)ccn1)C1CCC(F)(F)CC1` (centres unmarked) [Example 36, N-(1-(4,4-difluorocyclohexyl)-2-((4-((1-methyl-6-oxo-1,6-dihydro-pyridin-2-yl)methyl)pyridin-2-yl)amino)-2-oxoethyl)-1-ethyl-1H-pyrazole-5-carboxamide], for which the IC50 worked out at 12 µM. `COCC(NC(=O)CCC(F)(F)F)c1ccnc(NC(=O)C(NC(=O)c2ccnn2C(C)C)C2CCC(C)CC2)c1` [Example 246, 1-isopropyl-N-((1S)-2-((4-(2-methoxy-1-(4,4,4-trifluorobutanamido)ethyl)pyridin-2-yl)amino)-1-((1r,4S)-4-methylcyclohexyl)-2-oxoethyl)-1H-pyrazole-5-carboxamide] yielded an IC50 of 0.072 µM. Regarding `COCC(c1ccnc(NC(=O)[C@@H](NC(=O)c2conc2C(C)C)[C@H]2CC[C@H](C)CC2)c1)N1C[C@@H](C(F)(F)F)NC1=O` (single isomer, unassigned) [Example 77], the IC50 came to 0.06 µM. Under `O=C(N[C@H](C(=O)Nc1cc(CN2C[C@@H](C(F)(F)F)NC2=O)ccn1)C1CCC(F)(F)CC1)c1nonc1C1CC1` [Example 8, 4-cyclopropyl-N-((S)-1-(4,4-difluorocyclohexyl)-2-oxo-2-((4-(((S)-2-oxo-4-(trifluoromethyl)imidazolidin-1-yl)methyl)pyridin-2-yl)amino)ethyl)-1,2,5-oxadiazole-3-carboxamide] stands 0.141 µM. Under `CCn1nccc1C(=O)N[C@H](C(=O)Nc1cc(C(C)(C)N2C[C@@H](C(F)(F)F)NC2=O)ccn1)C1CCC(F)(F)CC1` [Example 174, N-((S)-1-(4,4-difluorocyclohexyl)-2-oxo-2-((4-(2-((S)-2-oxo-4-(trifluoromethyl)imidazolidin-1-yl)propan-2-yl)pyridin-2-yl)amino)ethyl)-1-ethyl-1H-pyrazole-5-carboxamide] stands 0.362 µM; under `COCC(NC(=O)CCC(F)(F)F)c1ccnc(NC(=O)[C@@H](NC(=O)c2ccnn2C2CC2)C2CCC(F)(F)CC2)c1` (single isomer, unassigned) [Example 139], 0.265 µM. Turning to `Cc1nonc1C(=O)NC(C(=O)Nc1cc(CN2CC(C(F)(F)F)NC2=O)ccn1)C1CCC(F)CC1` [Example 291, N-((S)-1-((1r,4S)-4-fluorocyclohexyl)-2-oxo-2-((4-(((S)-2-oxo-4-(trifluoromethyl)imidazolidin-1-yl)methyl)pyridin-2-yl)amino)ethyl)-4-methyl-1,2,5-oxadiazole-3-carboxamide], the IC50 worked out at 0.619 µM.

Consider `CCn1nccc1C(=O)N[C@H](C(=O)Nc1cc([C@@H](COC)N2C[C@@H](C(F)(F)F)NC2=O)ccn1)[C@H]1CCCC(F)(F)C1` (single isomer, unassigned) [Example 308], for which the half-maximal inhibitory concentration (IC50) came out at 0.074 µM. Then `CC(c1ccnc(NC(=O)[C@@H](NC(=O)c2nonc2C2CC2)C2CCC(F)(F)CC2)c1)N1C[C@@H](C(F)(F)F)NC1=O` (single isomer, unassigned) [Example 170, 4-cyclopropyl-N-((S)-1-(4,4-difluorocyclohexyl)-2-oxo-2-((4-((R or S)-1-((S)-2-oxo-4-(trifluoromethyl)imidazolidin-1-yl)ethyl)pyridin-2-yl)amino)ethyl)-1,2,5-oxadiazole-3-carboxamide], with 0.021 µM; and `CC(C)n1nccc1C(=O)N[C@H](C(=O)Nc1cc(C(NC(=O)CC(F)(F)F)C2CC2)ccn1)C1CCC(F)(F)CC1` (stereo partly drawn) [Example 160, N-((1S)-2-((4-(cyclopropyl(3,3,3-trifluoropropanamido)methyl)pyridin-2-yl)amino)-1-(4,4-difluorocyclohexyl)-2-oxoethyl)-1-isopropyl-1H-pyrazole-5-carboxamide], with 0.183 µM. Then `CC(C)c1nocc1C(=O)N[C@H](C(=O)Nc1cc(CN2C[C@@H](C(F)(F)F)NC2=O)ccn1)[C@@H](C)OC(C)(C)C` [Example 130, N-((2S,3R)-3-(tert-butoxy)-1-oxo-1-((4-(((S)-2-oxo-4-(trifluoromethyl)-imidazolidin-1-yl)methyl)-pyridin-2-yl)amino)butan-2-yl)-3-isopropyl-isoxazole-4-carboxamide], with 0.35 µM.
